From patent publication US20240368173A1, “TRICYCLIC GPR65 MODULATORS” (PATHIOS THERAPEUTICS LIMITED, priority 2021, published 2024)

Target: human recombinant GPR65 (Homo sapiens, UniProt Q8IYL9)
Test: Human GPR65 cAMP HTRF antagonist assay
Type: cell-based
Details: not given
Summary of the method: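 Antagonism measured as suppression of the cAMP rise when pH is dropped to 7.2 (control wells pH 7.9) in 1321N1 cells stably carrying human GPR65. Cells in KRH with 1 mM IBMX and 200 μM EDTA saw compound 30 min, then acid stimulation 30 min; HTRF cAMP detection, normalised, 4-parameter logistic IC50.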

human recombinant GPR65, sequence (Q8IYL9 whole entry): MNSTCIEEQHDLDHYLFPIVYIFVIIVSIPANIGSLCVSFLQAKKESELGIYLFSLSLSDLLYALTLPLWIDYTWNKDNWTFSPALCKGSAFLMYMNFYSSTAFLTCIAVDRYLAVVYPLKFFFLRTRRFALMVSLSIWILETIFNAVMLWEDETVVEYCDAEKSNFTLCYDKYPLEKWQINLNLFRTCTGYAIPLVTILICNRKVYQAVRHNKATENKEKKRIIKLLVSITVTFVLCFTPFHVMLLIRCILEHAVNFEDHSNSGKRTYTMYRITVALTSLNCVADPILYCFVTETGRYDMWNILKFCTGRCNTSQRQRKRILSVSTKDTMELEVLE

Row | Structure (SMILES) | IC50 [nM]
1 | O=C(Nc1cc(Cl)c(-c2ccc(OCCN3CCCCC3)nc2)cc1F)N1[C@H]2CC[C@@H]1c1ccnc(F)c1C2 [Compound 220, (5R,8S)-N-(5-Chloro-2-fluoro-4-(6-(2-(piperidin-1-yl)ethoxy)pyridin-3-yl)phenyl)-1-fluoro-6,7,8,9-tetrahydro-5H-5,8-epiminocyclohepta[c]pyridine-10-carboxamide] | < 500
2 | Cc1nc2ccc(-c3cc(F)c(NC(=O)N4[C@H]5CC[C@@H]4c4n[nH]c(=O)cc4C5)cc3Cl)cc2o1 [Compound 170, (6S,9R)-N-(5-Chloro-2-fluoro-4-(2-methylbenzo[d]oxazol-6-yl)phenyl)-3-oxo-3,5,6,7,8,9-hexahydro-2H-6,9-epiminocyclohepta[c]pyridazine-10-carboxamide] | < 500
3 | Cn1ncc2cc(-c3cc(F)c(NC(=O)N4[C@H]5CC[C@@H]4c4n[nH]c(=O)cc4C5)cc3Cl)ccc21 [Compound 164, (6S,9R)-N-(5-Chloro-2-fluoro-4-(1-methyl-1H-indazol-5-yl)phenyl)-3-oxo-3,5,6,7,8,9-hexahydro-2H-6,9-epiminocyclohepta[c]pyridazine-10-carboxamide] | < 500
4 | O=C(Nc1noc2ccccc12)N1[C@H]2CC[C@@H]1c1n[nH]c(=O)cc1C2 [Compound 187, (6S,9R)-N-(Benzo[d]isoxazol-3-yl)-3-oxo-3,5,6,7,8,9-hexahydro-2H-6,9-epiminocyclohepta[c]pyridazine-10-carboxamide] | 500 to 5000
5 | CC(C)(O)c1ccc(NC(=O)N2[C@H]3CC[C@@H]2c2ccnc(F)c2C3)cc1Cl [Compound 60, (5R,8S)—N-(3-Chloro-4-(2-hydroxypropan-2-yl)phenyl)-1-fluoro-6,7,8,9-tetrahydro-5H-5,8-epiminocyclohepta[c]pyridine-10-carboxamide] | < 500
6 | Cc1nc2ccc(-c3cc(F)c(NC(=O)N4[C@H]5CC[C@@H]4c4c[nH]c(=O)cc4C5)cc3Cl)cc2o1 [Compound 206, (6S,9R)-N-(5-Chloro-2-fluoro-4-(2-methylbenzo[d]oxazol-6-yl)phenyl)-3-oxo-3,5,6,7,8,9-hexahydro-2H-6,9-epiminocyclohepta[c]pyridine-10-carboxamide] | < 500
7 | O=C(Nc1cc(Cl)c(-c2ccc(OC(F)F)nc2)cc1F)N1[C@H]2CC[C@@H]1c1n[nH]c(=O)cc1C2 [Compound 315, (6S,9R)-N-(5-Chloro-4-(6-(difluoromethoxy)pyridin-3-yl)-2-fluorophenyl)-3-oxo-3,5,6,7,8,9-hexahydro-2H-6,9-epiminocyclohepta[c]pyridazine-10-carboxamide] | < 500
8 | O=C(Nc1cc(-c2cncc(F)c2)c(C(F)(F)F)cc1F)N1[C@H]2CC[C@@H]1c1ccnc(F)c1C2 [Compound 256, (5R,8S)-1-fluoro-N-(2-fluoro-5-(5-fluoropyridin-3-yl)-4-(trifluoromethyl)phenyl)-6,7,8,9-tetrahydro-5H-5,8-epiminocyclohepta[c]pyridine-10-carboxamide] | < 500
9 | COc1cc(-c2cc(F)c(NC(=O)N3[C@H]4CC[C@@H]3c3n[nH]c(=O)cc3C4)cc2Cl)ccn1 [Compound 199, (6S,9R)-N-(5-Chloro-2-fluoro-4-(2-methoxypyridin-4-yl)phenyl)-3-oxo-3,5,6,7,8,9-hexahydro-2H-6,9-epiminocyclohepta[c]pyridazine-10-carboxamide] | < 500
10 | O=C(Nc1ccc(C(F)(F)F)c(Br)c1)N1C2CCC1c1n[nH]c(=O)cc1C2 (racemic) [Compound 3, (±)-N-(3-Bromo-4-(trifluoromethyl)phenyl)-3-oxo-3,5,6,7,8,9-hexahydro-2H-6,9-epiminocyclohepta[c]pyridazine-10-carboxamide] | < 500
11 | O=C(Nc1cc(Cl)c(Cl)cc1F)N1[C@H]2CC[C@@H]1c1ncc(F)cc1C2 [Compound 98, (6S,9R)-N-(4,5-Dichloro-2-fluorophenyl)-3-fluoro-6,7,8,9-tetrahydro-5H-6,9-epiminocyclohepta[b]pyridine-10-carboxamide] | < 500
12 | O=C(Nc1cc(Cl)c(-c2cncc(F)c2)cc1F)N1[C@H]2CC[C@@H]1c1ccnc(F)c1C2 [Compound 200, (5R,8S)-N-(5-Chloro-2-fluoro-4-(5-fluoropyridin-3-yl)phenyl)-1-fluoro-6,7,8,9-tetrahydro-5H-5,8-epiminocyclohepta[c]pyridine-10-carboxamide] | < 500
13 | O=C(Nc1cc(Cl)c(-c2ccc3nonc3c2)cc1F)N1[C@H]2CC[C@@H]1C(F)(F)c1c2ccnc1F [Compound 329, (5S,8R)-N-(4-(Benzo[c][1,2,5]-oxadiazol-5-yl)-5-chloro-2-fluorophenyl)-1,9,9-trifluoro-6,7,8,9-tetrahydro-5H-5,8-epiminocyclohepta[c]pyridine-10-carboxamide] | 500 to 5000
14 | O=C(Nc1cc(Cl)c(-c2ccc(OCC3CC3)nc2)cc1F)N1[C@H]2CC[C@@H]1c1c[nH]c(=O)cc1C2 [Compound 334, (6S,9R)-N-(5-Chloro-4-(6-(cyclopropylmethoxy)pyridin-3-yl)-2-fluorophenyl)-3-oxo-3,5,6,7,8,9-hexahydro-2H-6,9-epiminocyclohepta[c]pyridine-10-carboxamide] | < 500
15 | COc1ccc(-c2cc(F)c(NC(=O)N3[C@H]4CC[C@@H]3c3c[nH]c(=O)cc3C4)cc2F)cn1 [Compound 246, (6S,9R)-N-(2,5-Difluoro-4-(6-methoxypyridin-3-yl)phenyl)-3-oxo-3,5,6,7,8,9-hexahydro-2H-6,9-epiminocyclohepta[c]pyridine-10-carboxamide] | < 500
16 | COc1ncc(-c2cc(F)c(NC(=O)N3[C@H]4CC[C@@H]3c3n[nH]c(=O)cc3C4)cc2Cl)cc1F [Compound 207, (6S,9R)-N-(5-Chloro-2-fluoro-4-(5-fluoro-6-methoxypyridin-3-yl)phenyl)-3-oxo-3,5,6,7,8,9-hexahydro-2H-6,9-epiminocyclohepta[c]pyridazine-10-carboxamide] | < 500
17 | O=C(Nc1ccc(OC(F)(F)F)c(Cl)c1)N1C2CCC1c1n[nH]c(=O)cc1C2 (racemic) [Compound 9, (±)-N-(3-Chloro-4-(trifluoromethoxy)phenyl)-3-oxo-3,5,6,7,8,9-hexahydro-2H-6,9-epiminocyclohepta[c]pyridazine-10-carboxamide] | < 500
18 | O=C(Nc1cc(Cl)c(-c2ccc(C(F)(F)F)nc2)cc1F)N1[C@H]2CC[C@@H]1c1n[nH]c(=O)cc1C2 [Compound 313, (6S,9R)-N-(5-Chloro-2-fluoro-4-(6-(trifluoromethyl)pyridin-3-yl)phenyl)-3-oxo-3,5,6,7,8,9-hexahydro-2H-6,9-epiminocyclohepta[c]pyridazine-10-carboxamide] | < 500
19 | COc1cnccc1-c1cc(F)c(NC(=O)N2[C@H]3CC[C@@H]2c2c[nH]c(=O)cc2C3)cc1Cl [Compound 298, (6S,9R)-N-(5-Chloro-2-fluoro-4-(3-methoxypyridin-4-yl)phenyl)-3-oxo-3,5,6,7,8,9-hexahydro-2H-6,9-epiminocyclohepta[c]pyridine-10-carboxamide] | 500 to 5000
20 | O=C(Nc1cc(Cl)c(I)cc1F)N1[C@H]2CC[C@@H]1c1c[nH]c(=O)cc1C2 [Compound 79, (6S,9R)-N-(5-Chloro-2-fluoro-4-iodophenyl)-3-oxo-3,5,6,7,8,9-hexahydro-2H-6,9-epiminocyclohepta[c]pyridine-10-carboxamide] | < 500
21 | O=C(Nc1cc(Cl)c(-c2cc3nonc3cc2F)cc1F)N1[C@H]2CC[C@@H]1c1n[nH]c(=O)cc1C2 [Compound 326, (6S,9R)-N-(5-Chloro-2-fluoro-4-(6-fluorobenzo[c][1,2,5]oxadiazol-5-yl)phenyl)-3-oxo-3,5,6,7,8,9-hexahydro-2H-6,9-epiminocyclohepta[c]pyridazine-10-carboxamide] | < 500
22 | N#Cc1ccc(-c2cc(F)c(NC(=O)N3[C@H]4CC[C@@H]3c3n[nH]c(=O)cc3C4)cc2Cl)cn1 [Compound 124, (6S,9R)-N-(5-Chloro-4-(6-cyanopyridin-3-yl)-2-fluorophenyl)-3-oxo-3,5,6,7,8,9-hexahydro-2H-6,9-epiminocyclohepta[c]pyridazine-10-carboxamide] | < 500
23 | N#Cc1cncc(-c2cc(F)c(NC(=O)N3[C@H]4CC[C@@H]3c3n[nH]c(=O)cc3C4)cc2Cl)c1 [Compound 127, (6S,9R)-N-(5-Chloro-4-(5-cyanopyridin-3-yl)-2-fluorophenyl)-3-oxo-3,5,6,7,8,9-hexahydro-2H-6,9-epiminocyclohepta[c]pyridazine-10-carboxamide] | < 500
24 | CC(C)Oc1ccc(NC(=O)N2[C@H]3CC[C@@H]2c2ccnc(F)c2C3)cc1Cl [Compound 70, (5R,8S)-N-(3-Chloro-4-isopropoxyphenyl)-1-fluoro-6,7,8,9-tetrahydro-5H-5,8-epiminocyclohepta[c]pyridine-10-carboxamide] | < 500

Same assay, conditions: 1321N1-hrGPR65 cells, cAMP HTRF, assay pH 7.2; read-out: hGPR65 IC50 (Activity of selected compounds according to the invention)

Row | Structure (SMILES) | IC50 [nM]
25 | O=C(Nc1cc(Br)c(C(F)(F)F)cc1F)N1[C@@H]2CC[C@H]1c1c[nH]c(=O)nc1C2 [Compound 29, (5S,8R)-N-(5-Bromo-2-fluoro-4-(trifluoromethyl)phenyl)-2-oxo-3,5,6,7,8,9-hexahydro-2H-5,8-epiminocyclohepta[d]pyrimidine-10-carboxamide] | > 5000
26 | O=C(Nc1cc(Cl)c(Cl)cc1F)N1[C@@H]2CC[C@H]1[C@@H](F)c1ccnc(F)c12 (racemic) [Compound 284, ±(5-endo)-N-(4,5-dichloro-2-fluorophenyl)-1,5-difluoro-6,7,8,9-tetrahydro-5H-6,9-epiminocyclohepta[c]pyridine-10-carboxamide] | 500 to 5000
27 | O=C(Nc1cc(Cl)c(Cl)cc1F)N1[C@@H]2CC[C@H]1c1ncc(F)cc1C2 [Compound 95, (6R,9S)-N-(4,5-Dichloro-2-fluorophenyl)-3-fluoro-6,7,8,9-tetrahydro-5H-6,9-epiminocyclohepta[b]pyridine-10-carboxamide] | > 5000
28 | O=C(Nc1cc(-c2cccnc2F)c(-c2cccnc2F)cc1F)N1[C@H]2CC[C@@H]1c1n[nH]c(=O)cc1C2 [Compound 116, (6S,9R)-N-(2-Fluoro-4,5-bis(2-fluoropyridin-3-yl)phenyl)-3-oxo-3,5,6,7,8,9-hexahydro-2H-6,9-epiminocyclohepta[c]pyridazine-10-carboxamide] | 500 to 5000
